Reference: patent US20240109877A1, “PYRIMIDINES FOR DEGRADING BRUTON'S TYROSINE KINASE” (AbbVie Inc., priority 2022, published 2024)

Tested on: TCL1-driven CLL bearing BTK^C481S mutation
Test: TCL1-driven CLL bearing BTK C481S mutation in C57BL/6 mice, circulating leukemia burden
Assay type: in vivo, mouse
Conditions: once daily (QD) for 19 days
Source text: EIA-TCL1 CLL transgenic mice (Crogen Pharmaceuticals LLC) were crossed with BTK^C481S knock-in mice (AbbVie) to generate Eμ-TCL1 transgenic mice carrying the BTK^C481S mutation. The leukemic splenocytes from these BTK^C481S Eμ-TCL1 transgenic mice (Passage 1) were transplanted intravenously into C57BL/6 mice, leading to CLL development in the peripheral blood and spleen. When circulating CLL burden (CD5+CD19+ cells as described below) in the recipient mice reached over 90%, their splenocytes (Passage 2) containing high CLL burden were cryopreserved and used for CLL efficacy studies. […]
To determine the absolute/total leukocyte numbers, complete blood counts were determined for each mouse using the Genesis™ veterinary hematology analyzer (Oxford Science Inc.).
Cells isolated from murine peripheral blood mononuclear cells (PMBCs) were collected to determine antigen expression. […] Cells were gated on CD45+, and thereafter the percentage of cells that were CD5+CD19+ from that subset was calculated. […]
Whole blood was collected weekly post tumor implantation via submandibular cheek bleeding. Circulating leukemic burden was calculated by multiplying absolute/total leukocyte count with the percentage of the leukocytes have the immunophenotype CD19^+CD5^+. […]

## Cc1cc(-c2cc(Nc3ccc(N4CCN(CCc5ccc(N6CCC(=O)NC6=O)cc5)C[C@@H]4C)cn3)ncn2)ccc1[C@@H](C)NC(=O)c1nc(C(C)(C)C)no1 [Example 1, 3-tert-butyl-N-[(1R)-1-{4-[6-({5-[(2S)-4-{2-[4-(2,4-dioxo-1,3-diazinan-1-yl)phenyl]ethyl}-2-methylpiperazin-1-yl]pyridin-2-yl}amino)pyrimidin-4-yl]-2-methylphenyl}ethyl]-1,2,4-oxadiazole-5-carboxamide]
Dosage 1-4, dose-dependent manner, FIG. 1
  circulating leukemia burden (CD19+CD5+ CLL cells per μL): controlled circulating leukemia burden
At Dosage 3 and Dosage 4
  CLL burden control (no increase from the initial tumor burden): Complete CLL burden control
